In US20120035203A1, “BUTACLAMOL FOR THE TREATMENT OF AMYOTROPHIC LATERAL SCLEROSIS” (CAMBRIA PHARMACEUTICALS, INC., priority 2009, published 2012):
Peptide text beside a SMILES is read from it. * marks the point of attachment. Cbz = O=C(OCc1ccccc1)*

How the values were obtained:
[1] = test system: PC12 cells that express mutant G93A SOD1 as a YFP fusion protein; assay: high throughput cytotoxicity protection assay; conditions: for Activity in Protection Assay: neuroleptic agent screening; for protection of cell viability from MG132: 100 nM MG132 co-treatment
Protocol: This idea was tested by examining the sensitivity of PC12 cells to SOD1 aggregates in the presence and absence of proteasome inhibitor MG132. PC12 cells expressing no SOD1, wild type SOD1, G85R SOD1 or G93A SOD1 were grown with or without MG132 (FIG. 1). […] The ability of protein aggregates to induce cell death was examined by treating G93A SOD1-expressing cells with MG132 for 24 h, removing the MG132 by washing and assaying cell viability after another 24 h.
PC12 cells expressing G93A SOD1 were treated with 100 nM MG132 with or without co-treatment with geldanamycin or radicicol.

[2] = test system: PC12 cells expressing G85R SOD1; assay: mutant SOD1 direct protein aggregation assay; format: cell-based
Protocol: 4) Compounds could act directly on SOD1 in a manner that prevents mutant SOD1 aggregation. These possibilities were tested using an assay that directly measures protein aggregation. In addition, unlike the high throughput cytotoxicity protection assay, the protein aggregation assay is based on G85R SOD1; this broadens the scope of the screening strategy, and should eliminate compounds with highly specific activity (i.e., G93A SOD1 limited) against protein aggregation.
The identification of a positive control is a crucial step in assay development. Thus, PC12 cells expressing G85R or G93A mutant SOD1 were treated with MG132 to induce protein aggregation, and then co-treated with candidate chemical suppressors of protein aggregation.
To allow this assay to be used in a high-throughput manner, a Cellomics Arrayscan® high content microscopy system was used for screening and quantification. […] Because the most robust high content assays measure events on a per cell basis, it was necessary to select a fluorescent stain that marks whole cells to be used with a compatible stain that marks intracellular structures.

[3] = test system: PC12 cells expressing G93A mutant SOD1; assay: MG132-induced SOD1 protein aggregation; format: cell-based
Protocol: (§1) In PC12 cells that express wild-type SOD1, SOD1 was diffusely localized throughout the cell (Matsumoto et al. J. Cell. Biol 2005, 171(1), 75-85). […] Therefore, these effects are likely to be due to MG132-induced proteasome inhibition, and not due to an off-target effect of MG132.
The identification of a positive control is a crucial step in assay development. Thus, PC12 cells expressing G85R or G93A mutant SOD1 were treated with MG132 to induce protein aggregation, and then co-treated with candidate chemical suppressors of protein aggregation. […] Both compounds induce heat shock transcription factor HSF-1, which in turn induces the heat shock response (FIG. 4). Treatment with radicicol reduced the proportion of cells with aggregates from 75% to 25%, a sufficient difference to allow visual scoring for compounds with efficacy equal to or greater than radicicol.

[4] = test system: PC12 cells expressing wild-type SOD1; assay: MG132-induced SOD1 protein aggregation; format: cell-based; conditions: cells treated with MG132
Source text: as §1

[5] = test system: PC12 cells expressing no SOD1, wild type SOD1 and G85R SOD1; assay: sensitivity of PC12 cells to proteasome inhibitor (cell viability, calcein-AM); format: cell-based; conditions: Rattus norvegicus, PC-12
[6] = test system: PC12 cells expressing G93A SOD1; assay: as above; format: cell-based
Protocol: FIG. 1. Proteasome inhibition is selectively toxic to PC12 cells expressing mutant G93A SOD1. Cell survival was determined using the viability stain calcein-AM.

cellular toxicity = format: cell-based
Source text: Butaclamol is a diasteriomer and the two different isomeric forms can be physically separated.

CN(C)CCCN1c2ccccc2Sc2ccc(Cl)cc21 [Chlorpromazine]
Activity in Protection Assay [1]: Inactive

CN(C)CC/C=C1/c2ccccc2Sc2ccc(Cl)cc21 [Chlorprothixene]
Activity in Protection Assay [1]: Inactive

CN1CCN(C2=Nc3cc(Cl)ccc3Nc3ccccc32)CC1 [Clozapine]
Activity in Protection Assay [1]: Inactive

O=C(CCCN1CCC(O)(c2ccc(Cl)cc2)CC1)c1ccc(F)cc1 [Haloperidol]
Activity in Protection Assay [1]: Inactive

CN1CCN(C2=Nc3ccccc3Oc3ccc(Cl)cc32)CC1 [Loxapine]
Activity in Protection Assay [1]: Inactive

CC(C)C[C@@H](C=O)NC(=O)[C@H](CC(C)C)NC(=O)[C@H](CC(C)C)NC(=O)OCc1ccccc1 [MG132] (Cbz-Leu-Leu-Leu-aldehyde)
cells containing protein aggregates ([2]; G85R SOD1 cells treated with MG132): up to 75% | cells with protein aggregates ([3]; G93A SOD1 cells following treatment with MG132): ~75% | protein aggregation in wild-type SOD1 cells [4]: no aggregation was observed | IC50 [5]: ~400 nM | toxicity at 24 hr ([6]; 100 nM, 24 hr, any of the cell lines): no toxicity | toxicity after 48 hours ([6]; 100 nM, 48 hours): selectively toxic to the G93A SOD1 cell line | fold more sensitive than the other PC12 lines ([6]; G93A SOD1 cells vs no SOD1, wild type, G85R): approximately 5 fold | IC50 ([6]; Rattus norvegicus, PC-12, read-out: IC50 (cell viability)): ~75 nM

OCCN1CCN(CCCN2c3ccccc3Sc3ccc(Cl)cc32)CC1 [Perphenazine]
Activity in Protection Assay [1]: Inactive

O=c1[nH]c2ccccc2n1C1CCN(CCCC(c2ccc(F)cc2)c2ccc(F)cc2)CC1 [Pimozide]
Activity in Protection Assay [1]: Inactive

C[C@@H]1C[C@H]2O[C@@H]2/C=C\C=C\C(=O)Cc2c(Cl)c(O)cc(O)c2C(=O)O1 [Radicicol]
protection of cell viability from MG132 [1]: protects | protection of cell viability from MG132 ([1]; listed as radicicol): increased cell viability in a dose-dependent manner | EC50 ([1]; Rattus norvegicus, PC-12, read-out: Protection ED50): ~530 nM | Protection Efficacy % Viability ([1]; at the concentration given): 80% | Protection Efficacy Conc. ([1]; concentration at which the % viability is given): 0.7 µM | Aggregation [2]: Moderate | proportion of cells with aggregates ([2]; G85R or G93A mutant SOD1 cells, co-treated with MG132, 75% without radicicol): 25% | suppression of MG132-induced mutant SOD1 aggregation ([2]; G93A SOD1 or G85R SOD1 cells, MG132 co-treatment): decreases mutant SOD1 aggregation | formation of protein aggregates ([3]; 100 nM MG132 co-treatment): reduced formation of protein aggregates | IC50 (cellular toxicity): ~30000 nM

Cc1nc2n(c(=O)c1CCN1CCC(c3noc4cc(F)ccc34)CC1)CCCC2 [Risperidone]
Activity in Protection Assay [1]: Inactive

CN1CCN(CCCN2c3ccccc3Sc3ccc(C(F)(F)F)cc32)CC1 [Trifluoperazine]
Activity in Protection Assay [1]: Inactive

CC(C)C[C@H](NC(=O)[C@H](Cc1ccccc1)NC(=O)c1cnccn1)B(O)O [bortezomib]
sensitivity of PC12 cells to proteasome inhibition ([6]; compared with MG132): Qualitatively similar results
